According to ChEMBL document CHEMBL2203270, “POMA analyses as new efficient bioinformatics' platform to predict and optimise bioactivity of synthesized 3a,4-dihydro-3H-indeno[1,2-c]pyrazole-2-carboxamide/carbothioamide analogues” (Bioorg Med Chem Lett, 2012):
pIC50: −log10 of the molar value. Values after ≈ are worked out from the molar mass of the structure shown. Active and inactive are the calls of the source. No cut-off for these calls is given here.

How the values were obtained:
[1] = system: Human immunodeficiency virus 1; assay: Antiviral activity against HIV-1 3B infected in MT4 cells assessed as inhibition of virus-induced cytopathicity; type: functional, organism-based; conditions: Human immunodeficiency virus 1, 3B
[2] = system: Human immunodeficiency virus 2; assay: Antiviral activity against HIV-2 ROD infected in MT4 cells assessed as inhibition of virus-induced cytopathicity; type: functional, organism-based; conditions: Human immunodeficiency virus 2, ISOLATE ROD
[3] = system: Mus musculus; assay: Anticonvulsant activity in mouse assessed as protection against clonic seizure at 100 mg/kg, ip measured at 2 hr; type: functional, organism-based; parameters: dose 100 mg/kg
[4] = Cytotoxicity against mock-infected human MT4 cells assessed as decrease in cell viability by MTT assay; type: cell-based
[5] = system: Mus musculus; assay: Anticonvulsant activity in mouse assessed as protection against clonic seizure at 100 mg/kg, ip measured at 4 hr; type: functional, organism-based; parameters: dose 100 mg/kg
[6] = system: Mus musculus; assay: Anticonvulsant activity in mouse assessed as protection against clonic seizure at 100 mg/kg, ip measured at 0.5 hr; type: functional
[7] = system: Mus musculus; assay: Neurotoxicity in mouse assessed as minimal motor impairment at 100 mg/kg, ip measured at 0.5 hr by rotarod test; type: toxicity, organism-based; parameters: dose 100 mg/kg, route intraperitoneal; conditions: in vivo
[8] = system: Mus musculus; assay: Anticonvulsant activity in mouse assessed as protection against clonic seizure at 100 mg/kg, ip measured at 1 hr; type: functional
[9] = system: Mus musculus; assay: Neurotoxicity in mouse assessed as minimal motor impairment at 100 mg/kg, ip measured at 0.25 hr by rotarod test; type: toxicity, organism-based; parameters: dose 100 mg/kg, route intraperitoneal; conditions: in vivo
[10] = system: Mus musculus; assay: Neurotoxicity in mouse assessed as minimal motor impairment at 100 mg/kg, ip measured at 1 hr by rotarod test; type: toxicity, organism-based; parameters: dose 100 mg/kg, route intraperitoneal; conditions: in vivo
[11] = system: Mus musculus; assay: Neurotoxicity in mouse assessed as minimal motor impairment at 100 mg/kg, ip measured at 4 hr by rotarod test; type: toxicity, organism-based; parameters: dose 100 mg/kg, route intraperitoneal; conditions: in vivo
[12] = system: Human immunodeficiency virus 1; assay: Antiviral activity against HIV-1 3B infected in MT4 cells assessed as protection against virus-induced cytopathicity relative to control; type: functional; conditions: Human immunodeficiency virus 1, 3B
[13] = system: Human immunodeficiency virus 2; assay: Antiviral activity against HIV-2 ROD infected in MT4 cells assessed as protection against virus-induced cytopathicity relative to control; type: functional; conditions: Human immunodeficiency virus 2, ISOLATE ROD
[14] = system: Mus musculus; assay: Neurotoxicity in mouse assessed as minimal motor impairment at 100 mg/kg, ip measured at 2 hr by rotarod test; type: toxicity, organism-based; parameters: dose 100 mg/kg, route intraperitoneal; conditions: in vivo
[15] = system: Mus musculus; assay: Anticonvulsant activity in mouse assessed as protection against clonic seizure at 100 mg/kg, ip measured at 0.25 hr; type: functional
[16] = system: Escherichia coli; assay: Antimicrobial activity against Escherichia coli NCIM 5051 by broth dilution technique; type: functional
[17] = system: Candida albicans; assay: Antimicrobial activity against Candida albicans NCIM 3471 by broth dilution technique; type: functional
[18] = system: Bacillus subtilis; assay: Antimicrobial activity against Bacillus subtilis NCIM 2439 by broth dilution technique; type: functional
[19] = system: Pseudomonas aeruginosa; assay: Antimicrobial activity against Pseudomonas aeruginosa ATCC 10145 by broth dilution technique; type: functional
[20] = system: Aspergillus niger; assay: Antimicrobial activity against Aspergillus niger NCIM 1196 by broth dilution technique; type: functional
[21] = system: Staphylococcus aureus; assay: Antimicrobial activity against Staphylococcus aureus NCIM 2079 by broth dilution technique; type: functional
[22] = system: Bacillus subtilis; assay: Antimicrobial activity against Bacillus subtilis NCIM 2439 by disc-diffusion method; type: functional
[23] = system: Escherichia coli; assay: microbe, parasite or virus in culture; conditions: NCIM 5051
Description: Antimicrobial activity against Escherichia coli NCIM 5051 by disc-diffusion method

[24] = system: Pseudomonas aeruginosa; assay: microbe, parasite or virus in culture; conditions: ATCC 10145
[25] = system: Staphylococcus aureus; assay: microbe, parasite or virus in culture; conditions: NCIM 2079
Description: Antimicrobial activity against Staphylococcus aureus NCIM 2079 by disc-diffusion method

[26] = system: Candida albicans; assay: Antimicrobial activity against Candida albicans NCIM 3471 by agar diffusion method; type: functional
[27] = system: Aspergillus niger; assay: Antimicrobial activity against Aspergillus niger NCIM 1196 by agar diffusion method; type: functional

SMILES | pIC50 [1] | pIC50 [2] | Activity [3] | CC50 [4] [µM] | Activity [5] | Activity [7] | Activity [9] | Activity [10] | Activity [11] | Emax [12] [%] | Emax [13] [%] | Activity [14] | also measured
COc1cc2c(cc1OC)C1=NN(C(=O)Nc3ccc(F)c(Cl)c3)C(c3ccc(F)cc3)C1C2 (configuration not stated) | < 3.75 | < 3.75 | inactive | 179 | inactive | Non-toxic | Non-toxic | Non-toxic | Non-toxic | 2 | 7 | Non-toxic | Activity [6]: inactive; Activity [8]: inactive; Activity [15]: inactive
COc1cc2c(cc1OC)C1=NN(C(=O)Nc3ccc(Cl)cc3)C(c3ccccc3Cl)C1C2 (configuration not stated) | < 4.64 | < 4.64 | inactive | 22.9 | inactive | Non-toxic | Non-toxic | Non-toxic | Non-toxic | 2 | 2 | Non-toxic | Activity ([6]; route intraperitoneal): 75%; Activity ([8]; route intraperitoneal): 50%; Activity [15]: inactive
COc1cc2c(cc1OC)C1=NN(C(=O)Nc3ccc(Cl)cc3)C(c3ccc(F)cc3)C1C2 (configuration not stated) | < 4.59 | < 4.59 | inactive | 25.8 | inactive | Non-toxic | Non-toxic | Non-toxic | Non-toxic | 2 | 2 | Non-toxic | Activity ([6]; route intraperitoneal): 100%; Activity ([8]; route intraperitoneal): 75%; Activity ([15]; route intraperitoneal): 100%
COc1cc2c(cc1OC)C1=NN(C(=O)Nc3ccc(F)c(Cl)c3)C(c3ccccc3Cl)C1C2 (configuration not stated) | < 4.93 | < 4.93 | inactive | 11.8 | inactive | Non-toxic | Non-toxic | Toxic | Non-toxic | 5 | 1 | Non-toxic | Activity [6]: inactive; Activity [8]: inactive; Activity ([15]; route intraperitoneal): 75%
COc1ccc(C2C3Cc4cc(OC)c(OC)cc4C3=NN2C(=O)Nc2ccc(F)c(Cl)c2)cc1OC (configuration not stated) | < 3.65 | < 3.65 | inactive | 223 | inactive | Non-toxic | Non-toxic | Non-toxic | Non-toxic | 12 | 38 | Non-toxic | Activity ([6]; route intraperitoneal): 50%; Activity ([8]; route intraperitoneal): 50%; Activity [15]: inactive
COc1cc2c(cc1OC)C1=NN(C(=O)Nc3ccc(F)c(Cl)c3)C(c3ccccc3)C1C2 (configuration not stated) | < 4.45 | < 4.45 | inactive | 35.8 | inactive | Non-toxic | Non-toxic | Non-toxic | Non-toxic | 7 | 10 | Non-toxic | Activity [6]: inactive; Activity [8]: inactive; Activity ([15]; route intraperitoneal): 50%
COc1ccc(C2C3Cc4cc(OC)c(OC)cc4C3=NN2C(N)=O)cc1OC (configuration not stated) | < 3.82 | < 3.82 |  | 151 |  |  |  |  |  | 6 | 30 |  | MBC [16]: > 512 µg/mL; MIC [16]: 64 µg/mL (≈ 161 µM); MFC [17]: 512 µg/mL (≈ 1290 µM); MIC [17]: 32 µg/mL (≈ 80.5 µM); MBC [18]: > 512 µg/mL; MIC [18]: 128 µg/mL (≈ 322 µM); MBC [19]: > 512 µg/mL; MIC [19]: 128 µg/mL (≈ 322 µM); MFC [20]: 512 µg/mL (≈ 1290 µM); MIC [20]: 32 µg/mL (≈ 80.5 µM); MBC [21]: > 512 µg/mL; MIC [21]: 128 µg/mL (≈ 322 µM)
COc1cc2c(cc1OC)C1=NN(C(N)=S)C(c3ccccc3)C1C2 (configuration not stated) | < 4.55 | < 4.55 |  | 28.4 |  |  |  |  |  | 2 | 12 |  | MBC [16]: > 512 µg/mL; MIC [16]: 128 µg/mL (≈ 362 µM); MFC [17]: > 512 µg/mL; MIC [17]: 128 µg/mL (≈ 362 µM); MBC [18]: > 512 µg/mL; MIC [18]: 256 µg/mL (≈ 724 µM); MBC [19]: > 512 µg/mL; MIC [19]: 256 µg/mL (≈ 724 µM); MFC [20]: > 512 µg/mL; MIC [20]: 128 µg/mL (≈ 362 µM); MBC [21]: > 512 µg/mL; MIC [21]: 256 µg/mL (≈ 724 µM)
COc1cc2c(cc1OC)C1=NN(C(N)=O)C(c3ccccc3Cl)C1C2 (configuration not stated) | < 5.19 | < 5.19 |  | 6.47 |  |  |  |  |  | 3 | 3 |  | MBC [16]: 256 µg/mL (≈ 688 µM); MIC [16]: 16 µg/mL (≈ 43 µM); MFC [17]: > 512 µg/mL; MIC [17]: 128 µg/mL (≈ 344 µM); MBC [18]: 256 µg/mL (≈ 688 µM); MIC [18]: 16 µg/mL (≈ 43 µM); MBC [19]: 256 µg/mL (≈ 688 µM); MIC [19]: 16 µg/mL (≈ 43 µM); MFC [20]: > 512 µg/mL; MIC [20]: 256 µg/mL (≈ 688 µM); MBC [21]: 256 µg/mL (≈ 688 µM); MIC [21]: 16 µg/mL (≈ 43 µM)
O=C(O)c1cn(C2CC2)c2cc(N3CCNCC3)c(F)cc2c1=O [CIPROFLOXACIN] |  |  |  |  |  |  |  |  |  |  |  |  | MBC [22]: 8 µg/mL (≈ 24.1 µM); MIC [22]: 4 µg/mL (≈ 12.1 µM); MBC [23]: 4 µg/mL (≈ 12.1 µM); MBC [24]: 8 µg/mL (≈ 24.1 µM); MIC [24]: 4 µg/mL (≈ 12.1 µM); MBC [25]: 8 µg/mL (≈ 24.1 µM); MIC [25]: 4 µg/mL (≈ 12.1 µM)
OC(Cn1cncn1)(Cn1cncn1)c1ccc(F)cc1F [FLUCONAZOLE] |  |  |  |  |  |  |  |  |  |  |  |  | MFC [26]: 2 µg/mL (≈ 6.53 µM); MIC [26]: 1 µg/mL (≈ 3.27 µM); MFC [27]: 2 µg/mL (≈ 6.53 µM); MIC [27]: 2 µg/mL (≈ 6.53 µM)
